# Assay: Solubility test in water (visual inspection for an insoluble residue)
# Type: physicochemical
# Conditions: for solubility in water relative to the solubility of hpp2Py in water: fraction of the hpp2Py solubility in water
# Experimental: In a sample bottle (capacity: 20 mL) was put 1.16 mg of 1,1′-(9,9′-spirobi[9H-fluorene]-2,7-diyl)bis(1,3,4,6,7,8-hexahydro-2H-pyrimido[1,2-a]pyrimidine) (abbreviation: 2,7hpp2SF), and 0.5 mL of water was added thereto. This mixture was irradiated with ultrasonic waves for one minute. A precipitated white powder was found by visual inspection for an insoluble residue. After further addition of 0.5 mL of water and one-minute ultrasonic wave irradiation, a precipitated white powder was found by visual inspection. This procedure was repeatedly executed until the dissolution was confirmed by visual inspection.
# The precipitated white powder was found until the total amount of water reached 3.0 mL. After further addition of 0.5 mL of water and ultrasonic wave irradiation, no precipitated white powder was found.
# In a sample bottle (capacity: 100 mL) was put 1.08 mg of 1-(9,9′-spirobi[9H-fluorene]-2-yl)-1,3,4,6,7,8-hexahydro-2H-pyrimido[1,2-a]pyrimidine) (abbreviation: 2hppSF), and 50 mL of water was added thereto. A precipitated white powder was found by visual inspection for an insoluble residue. When 10 mL of water was further added, the precipitated white powder was not observed by visual inspection.
# In a sample bottle (capacity: 5 mL) was put 50.2 mg of 1,1′-pyridine-2,6-diyl-bis(1,3,4,6,7,8-hexahydro-2H-pyrimido[1,2-a]pyrimidine) (abbreviation: hpp2Py), and 1.0 mL of water was added thereto. The dissolution was found by visual inspection for an insoluble residue.
"weight which can be dissolved in 1.0 mL of water (per 1.0 mL of water, dissolution confirmed by visual inspection)",solubility in water relative to the solubility of hpp2Py in water,Compound
greater than or equal to 50.2 mg,,"c1cc(N2CCCN3CCCN=C32)nc(N2CCCN3CCCN=C32)c1 [hpp2Py, 1,1′-pyridine-2,6-diyl-bis(1,3,4,6,7,8-hexahydro-2H-pyrimido[1,2-a]pyrimidine), reference compound]"
,less than or equal to 1/10,"c1ccc2c(c1)-c1ccccc1C21c2ccccc2-c2ccc(N3CCCN4CCCN=C43)cc21 [2hppSF, 1-(9,9′-spirobi[9H-fluoren]-2-yl)-1,3,4,6,7,8-hexahydro-2H-pyrimido[1,2-a]pyrimidine]"
,less than or equal to 1/10,"c1ccc2c(c1)-c1ccccc1C21c2cc(N3CCCN4CCCN=C43)ccc2-c2ccc(N3CCCN4CCCN=C43)cc21 [2,7hpp2SF, 1,1′-(9,9′-spirobi[9H-fluoren]-2,7-diyl)bis(1,3,4,6,7,8-hexahydro-2H-pyrimido[1,2-a]pyrimidine)]"

# From patent US20250204247A1, “DISPLAY APPARATUS AND ELECTRONIC DEVICE” (SEMICONDUCTOR ENERGY LABORATORY CO., LTD., priority 2022, published 2025)
